Patent publication US11535643B2, “Macrolides with modified desosamine sugars and uses thereof” (President and Fellows of Harvard College, priority 2015, dated 2022)
Converted amounts (≈) assume the structure as drawn. Like-named read-outs stand apart in the source and are kept apart here.

How the values were obtained:
Type in all cases: cell-based
S. aureus = experiment: Broth dilution MIC determination (CLSI) against S. aureus strains
Summary of the method: (§1)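 Azithromycin and solithromycin were run alongside as controls. Strain panels included multidrug-resistant isolates, with emphasis on macrolide-resistance mechanisms, and MICs followed CLSI broth dilution procedures.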

S. pneumoniae = experiment: Broth dilution MIC determination (CLSI) against S. pneumoniae strains
Summary of the method: as §1

S. pyogenes = experiment: Broth dilution MIC determination (CLSI) against S. pyogenes strains
Summary of the method: as §1

E. faecalis = experiment: Broth dilution MIC determination (CLSI) against E. faecalis strains
Summary of the method: as §1

E. coli = experiment: Broth dilution MIC determination (CLSI) against E. coli strains
Summary of the method: as §1

A. baumannii = experiment: Broth dilution MIC determination (CLSI) against A. baumannii strains
Summary of the method: as §1

K. pneumoniae = experiment: Broth dilution MIC determination (CLSI) against K. pneumoniae strains
Summary of the method: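 CLSI broth-dilution MICs across a panel including multidrug- and macrolide-resistant strains, with azithromycin and solithromycin as control compounds.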

P. aeruginosa = experiment: Broth dilution MIC determination (CLSI) against P. aeruginosa strains
Summary of the method: as §1

H. influenzae = experiment: Broth dilution MIC determination (CLSI) against H. influenzae strains; conditions: Haemophilus influenzae
Description: Minimum inhibitory concentrations (MICs) for macrolides described herein have been determined for unique strains of S. aureus, S. pneumoniae, S. pyogenes, E. faecalis, E. coli, A. baumannii, K. pneumoniae, P. aeruginosa, and H. influenzae, including several multidrug-resistant strains, with a special focus on macrolide resistant mechanisms. Azithromycin and solithromycin were included as control compounds. CLSI standard procedures for broth dilution MIC determination were used. Data for exemplary compounds described herein is shown in Tables M1-M7 and in Tables N1-N4.

With `CC[C@H]1OC(=O)[C@H](C)[C@@H](O[C@H]2C[C@@](C)(OC)[C@@H](O)[C@H](C)O2)[C@H](C)[C@@H](O[C@@H]2O[C@H](C)C[C@H](N(C)C)[C@H]2O)[C@](C)(O)C[C@@H](C)CN(C)[C@H](C)[C@@H](O)[C@]1(C)O` [Azithromycin, azithromycin, reference compound] the MIC (S. aureus; Staphylococcus aureus, ATCC29213, ATCC29213, read-out: MIC S. aureus ATCC29213) was 1 µg/mL (≈ 1.34 µM), the MIC (S. aureus; Staphylococcus aureus, MRSA / USA100, read-out: MIC S. aureus MRSA: USA100) was over 32 µg/mL and the MIC (S. aureus; Staphylococcus aureus, MRSA / USA300, read-out: MIC S. aureus MRSA: USA300) was 32 µg/mL (≈ 42.7 µM). It also gave an MIC (S. aureus; Staphylococcus aureus, USA600, USA600, GISA, read-out: MIC S. aureus USA600, GISA) of over 32 µg/mL, an MIC (S. aureus; Staphylococcus aureus, read-out: MIC S. aureus erm A genotype) of over 32 µg/mL and an MIC (S. pneumoniae; Streptococcus pneumoniae, ATCC49619, ATCC49619, read-out: MIC S. pneumoniae ATCC49619) of under 0.0312 µg/mL. The MIC (S. pneumoniae; Streptococcus pneumoniae, erm B + mef A genotype, read-out: MIC S. pneumoniae erm B + mef A genotype) was over 32 µg/mL, the MIC (S. pneumoniae; Streptococcus pneumoniae, erm B + tet(M, O) genotype, read-out: MIC S. pneumoniae erm B + tet(M, O) genotype) was under 0.0312 µg/mL and the MIC (S. pneumoniae; Streptococcus pneumoniae, read-out: MIC S. pneumoniae mef A genotype, mef A genotype) was 4 µg/mL (≈ 5.34 µM). For the same molecule, the MIC (S. pneumoniae; Streptococcus pneumoniae, read-out: MIC S. pneumoniae mef A genotype, mef A genotype, first of two such columns (c3)) was 0.25 µg/mL (≈ 0.334 µM), the MIC (S. pyogenes; Streptococcus pyogenes, ATCC19615, ATCC19615, read-out: MIC S. pyogenes ATCC19615) was under 0.0312 µg/mL and the MIC (S. pyogenes; Streptococcus pyogenes, macrolide-resistant, read-out: MIC S. pyogenes macrolide-resistant) was 2 µg/mL (≈ 2.67 µM). For the same molecule, the MIC (E. faecalis; Enterococcus faecalis, ATCC29212, ATCC29212, read-out: MIC E. faecalis ATCC29212) was 4 µg/mL (≈ 5.34 µM), the MIC (E. faecalis; Enterococcus faecalis, Vancomycin-resistant, read-out: MIC E. faecalis Vancomycin-resistant) was over 32 µg/mL and the MIC (E. coli; Escherichia coli, ATCC25922, ATCC25922, read-out: MIC E. coli ATCC25922) was 4 µg/mL (≈ 5.34 µM). The MIC (E. coli; Escherichia coli, read-out: MIC E. coli CTX-M-14, CTX-M-14) was over 32 µg/mL, the MIC (E. coli; Escherichia coli, read-out: MIC E. coli NDM-1, NDM-1) was over 32 µg/mL and the MIC (E. coli; Escherichia coli, read-out: MIC E. coli TEM-1, TEM-1) was 1 µg/mL (≈ 1.34 µM). The MIC (A. baumannii; Acinetobacter baumannii, ATCC19606, ATCC19606, read-out: MIC A. baumannii ATCC19606) was 16 µg/mL (≈ 21.4 µM), the MIC (A. baumannii; Acinetobacter baumannii, IMP-4, read-out: MIC A. baumannii IMP-4) was over 32 µg/mL and the MIC (A. baumannii; Acinetobacter baumannii, chromosomal class C, read-out: MIC A. baumannii chromosomal class C) was 32 µg/mL (≈ 42.7 µM). It also gave an MIC (A. baumannii; Acinetobacter baumannii, imipenem-resistant, read-out: MIC A. baumannii imipenem-resistant) of 8 µg/mL (≈ 10.7 µM), an MIC (K. pneumoniae; Klebsiella pneumoniae, ATCC10031, ATCC10031, read-out: MIC K. pneumoniae ATCC10031) of 4 µg/mL (≈ 5.34 µM) and an MIC (K. pneumoniae; Klebsiella pneumoniae, KPC-2, read-out: MIC K. pneumoniae KPC-2) of over 32 µg/mL. It also gave an MIC (K. pneumoniae; Klebsiella pneumoniae, SHV-12, read-out: MIC K. pneumoniae SHV-12) of 16 µg/mL (≈ 21.4 µM), an MIC (K. pneumoniae; Klebsiella pneumoniae, TEM-10, read-out: MIC K. pneumoniae TEM-10) of 8 µg/mL (≈ 10.7 µM) and an MIC (P. aeruginosa; Pseudomonas aeruginosa, ATCC27853, read-out: MIC P. aeruginosa ATCC27853) of over 32 µg/mL. The MIC (P. aeruginosa; Pseudomonas aeruginosa, read-out: MIC P. aeruginosa HPA101-1477) was over 32 µg/mL, the MIC (H. influenzae; ATCC49247, ATCC49247, read-out: MIC H. influenzae ATCC49247) was 0.5 µg/mL (≈ 0.668 µM) and the MIC (H. influenzae; erythro > 4, azithro 1, read-out: MIC H. influenzae erythro > 4, azithro 1) was 0.125 µg/mL (≈ 0.167 µM).
For `CCC1OC(=O)C(C)C(=O)C(C)C(OC2OC(C)CC(N(C)Cc3cccnc3)C2O)C(C)(OC)CC(C)CNC(C)C2N(CCCCn3cc(-c4cccc(N)c4)nn3)C(=O)OC12C` (stereo not drawn) [FSM-120385], the MIC (S. aureus; S. aureus (MRSA) GISA USA600, strain MP-619 UNT-120 (Table N2)) was over 64 µg/mL, the MIC (S. aureus; S. aureus (MRSA) ST-228 cErm, strain MP-513 (Table N2)) was over 64 µg/mL and the MIC (S. aureus; S. aureus (MRSA) USA100, strain MP-618 UNT-096 (Table N2)) was over 64 µg/mL. It also gave an MIC (S. aureus; S. aureus (MRSA) USA300, strain MP-549 (Table N2)) of 16 µg/mL (≈ 17.7 µM), an MIC (S. aureus; S. aureus (MRSA) ermA phenotype, strain MP-620 UNT-146 (Table N2)) of over 64 µg/mL and an MIC (S. aureus; S. aureus ATCC29213, strain MP-12 (Table N2)) of 4 µg/mL (≈ 4.42 µM). For the same molecule, the MIC (S. aureus; S. aureus ATCCBAA-977, strain MP-17 (Table N2)) was 4 µg/mL (≈ 4.42 µM), the MIC (S. pneumoniae; S. pneumoniae ATCC49619, strain MP-21 (Table N2)) was 0.06 µg/mL (≈ 0.0663 µM) and the MIC (S. pneumoniae; S. pneumoniae mefA, strain MP-626 UNT-038 (Table N2)) was 0.125 µg/mL (≈ 0.138 µM). It also gave an MIC (S. pneumoniae; S. pneumoniae mefA, strain MP-627 UNT-039 (Table N2)) of 0.25 µg/mL (≈ 0.276 µM), an MIC (S. pyogenes; S. pyogenes ATCC19615, strain MP-19 (Table N2)) of under 0.03 µg/mL and an MIC (S. pyogenes; S. pyogenes mac resistant, strain MP-625 UNT-014 (Table N2)) of 1 µg/mL (≈ 1.1 µM). The MIC (E. faecalis; E. faecalis ATCC29212, strain MP-24 (Table N2)) was 1 µg/mL (≈ 1.1 µM), the MIC (E. faecalis; E. faecalis van resistant, strain UNT-039 (Table N2)) was over 64 µg/mL and the MIC (E. coli; E. coli ATCC25922, strain MP-4 (Table N2)) was 64 µg/mL (≈ 70.7 µM). For the same molecule, the MIC (E. coli; E. coli ATCC25922:tolC, strain MP-9 (Table N2)) was 4 µg/mL (≈ 4.42 µM), the MIC (E. coli; E. coli clinical, strain MP541 (Table N2)) was 64 µg/mL (≈ 70.7 µM) and the MIC (E. coli; E. coli clinical-cErm, strain MP532 (Table N2)) was over 64 µg/mL. The MIC (A. baumannii; A. baumannii ATCC19606, strain MP-15 (Table N2)) was 16 µg/mL (≈ 17.7 µM), the MIC (A. baumannii; A. baumannii clinical, strain MP576 (Table N2)) was over 64 µg/mL and the MIC (A. baumannii; A. baumannii clinical, strain MP577 (Table N2)) was 64 µg/mL (≈ 70.7 µM). It also gave an MIC (K. pneumoniae; K pneumomae ATCC10031, strain MP-14 (Table N2)) of 8 µg/mL (≈ 8.84 µM), an MIC (K. pneumoniae; K. pneumoniae clinical, strain MP546 (Table N2)) of over 64 µg/mL and an MIC (K. pneumoniae; K. pneumoniae clinical, strain MP548 (Table N2)) of over 64 µg/mL. The MIC (P. aeruginosa; P. aeruginosa ATCC27853, strain MP-3 (Table N2)) was over 64 µg/mL, the MIC (P. aeruginosa; P. aeruginosa PAO1, strain MP-7 (Table N2)) was over 64 µg/mL and the MIC (P. aeruginosa; P. aeruginosa PAO1:mex, strain MP-8 (Table N2)) was 32 µg/mL (≈ 35.4 µM).
